From the supplement of paper PMC9763283

Legend:
Assay in all cases: area under growth-rate inhibition curve (AUC GRI) (dimensionless (GR-based AUC)); higher = less growth inhibition
Conditions in all cases: exposure time: 72 h; concentrations: 0.1, 1, 10 uM
MDA-MB-231 = test system: MDA-MB-231
How it was run: (§1)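 Six breast cancer cell line models were used: two triple-negative lines, plus parental HER2+ lines and HER2+ lines resistant to a two-drug combination, each plated at an optimised log-phase density and treated with compound at 0.1, 1 or 10 µM for 72 h. After fixation in 4% paraformaldehyde, nuclei were stained with Hoechst 33342 or DAPI, imaged and counted. Growth was corrected using Day 0 plates, untreated Day 3 plates and DMSO controls, with 2 biological replicates. These corrected counts gave the area under the growth-rate inhibition curve.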

SKBR3-P = test system: SKBR3-P
How it was run: as §1

BT474-LTR = test system: BT474-LTR
How it was run: as §1

SKBR3-LTR = test system: SKBR3-LTR
How it was run: as §1

MDA-MB-468 = test system: MDA-MB-468
How it was run: as §1

BT474-P = test system: BT474-P
How it was run: as §1

CNCC(O)c1ccc(O)c(O)c1.[Cl-].[H+] (stereo unspecified) [Epinephrine HCl]
area under growth-rate inhibition curve (MDA-MB-231): 0.965 | area under growth-rate inhibition curve (SKBR3-P): 1.02 | area under growth-rate inhibition curve (BT474-LTR): 1.07 | area under growth-rate inhibition curve (SKBR3-LTR): 1.03 | area under growth-rate inhibition curve (MDA-MB-468): 1 | area under growth-rate inhibition curve (BT474-P): 1.04

CC(C)NCC(O)COc1cccc2ccccc12.[Cl-].[H+] (stereo unspecified) [Propranolol HCl]
area under growth-rate inhibition curve (MDA-MB-231): 1.04 | area under growth-rate inhibition curve (SKBR3-P): 1.01 | area under growth-rate inhibition curve (BT474-LTR): 1.1 | area under growth-rate inhibition curve (SKBR3-LTR): 1.06 | area under growth-rate inhibition curve (MDA-MB-468): 1.03 | area under growth-rate inhibition curve (BT474-P): 1.11

COc1ccc(CN(C(=O)C(N)Cc2c(C)cc(C(N)=O)cc2C)C(C)c2ncc(-c3ccccc3)[nH]2)cc1C(=O)O (stereo unspecified) [Eluxadoline]
area under growth-rate inhibition curve (MDA-MB-231): 1.04 | area under growth-rate inhibition curve (SKBR3-P): 1.02 | area under growth-rate inhibition curve (BT474-LTR): 1.04 | area under growth-rate inhibition curve (SKBR3-LTR): 1.04 | area under growth-rate inhibition curve (MDA-MB-468): 1.04 | area under growth-rate inhibition curve (BT474-P): 1

CN[C@@H]1CC[C@@H](c2ccc(Cl)c(Cl)c2)c2ccccc21.[Cl-].[H+] [Sertraline HCl]
area under growth-rate inhibition curve (MDA-MB-231): 0.918 | area under growth-rate inhibition curve (SKBR3-P): 0.963 | area under growth-rate inhibition curve (BT474-LTR): 0.972 | area under growth-rate inhibition curve (SKBR3-LTR): 0.981 | area under growth-rate inhibition curve (MDA-MB-468): 0.907 | area under growth-rate inhibition curve (BT474-P): 0.935

CN(C)CCc1c[nH]c2ccc(CS(=O)(=O)N3CCCC3)cc12.O=C(O)CC(O)C(=O)O [Almotriptan Malate]
area under growth-rate inhibition curve (MDA-MB-231): 1.02 | area under growth-rate inhibition curve (SKBR3-P): 1.02 | area under growth-rate inhibition curve (BT474-LTR): 1.09 | area under growth-rate inhibition curve (SKBR3-LTR): 1.06 | area under growth-rate inhibition curve (MDA-MB-468): 1.04 | area under growth-rate inhibition curve (BT474-P): 1.02

CCOc1ccc(Cc2cc([C@@H]3O[C@H](SC)[C@@H](O)[C@H](O)[C@H]3O)ccc2Cl)cc1 [Sotagliflozin (LX4211)]
area under growth-rate inhibition curve (MDA-MB-231): 1.01 | area under growth-rate inhibition curve (SKBR3-P): 1.02 | area under growth-rate inhibition curve (BT474-LTR): 1.06 | area under growth-rate inhibition curve (SKBR3-LTR): 1.1 | area under growth-rate inhibition curve (MDA-MB-468): 0.996 | area under growth-rate inhibition curve (BT474-P): 1.02

N=C(N)N/N=C/c1c(Cl)cccc1Cl [Guanabenz Acetate]
area under growth-rate inhibition curve (MDA-MB-231): 1.03 | area under growth-rate inhibition curve (SKBR3-P): 1.01 | area under growth-rate inhibition curve (BT474-LTR): 1.1 | area under growth-rate inhibition curve (SKBR3-LTR): 1.08 | area under growth-rate inhibition curve (MDA-MB-468): 1 | area under growth-rate inhibition curve (BT474-P): 1.03

Cc1ccc(-n2nccn2)c(C(=O)N2CCN(c3nc4cc(Cl)ccc4o3)CCC2C)c1 (stereo unspecified) [Suvorexant (MK-4305)]
area under growth-rate inhibition curve (MDA-MB-231): 1.02 | area under growth-rate inhibition curve (SKBR3-P): 0.995 | area under growth-rate inhibition curve (BT474-LTR): 1.05 | area under growth-rate inhibition curve (SKBR3-LTR): 1.04 | area under growth-rate inhibition curve (MDA-MB-468): 0.955 | area under growth-rate inhibition curve (BT474-P): 1.02

O=C(c1ccc(F)cc1)N1CCC[C@H](c2nc(-c3ccc(F)cc3)no2)C1
area under growth-rate inhibition curve (MDA-MB-231): 1.01 | area under growth-rate inhibition curve (SKBR3-P): 1.01 | area under growth-rate inhibition curve (BT474-LTR): 1.07 | area under growth-rate inhibition curve (SKBR3-LTR): 1.11 | area under growth-rate inhibition curve (MDA-MB-468): 1.04 | area under growth-rate inhibition curve (BT474-P): 1.02

CCc1cc(C(C)=NOCc2ccc(C3CCCCC3)c(C(F)(F)F)c2)ccc1CN1CC(C(=O)O)C1 [BAF312 (Siponimod)]
area under growth-rate inhibition curve (MDA-MB-231): 1.01 | area under growth-rate inhibition curve (SKBR3-P): 0.99 | area under growth-rate inhibition curve (BT474-LTR): 0.989 | area under growth-rate inhibition curve (SKBR3-LTR): 0.968 | area under growth-rate inhibition curve (MDA-MB-468): 0.961 | area under growth-rate inhibition curve (BT474-P): 1.01

CNCC(O)c1ccc(O)cc1 (stereo unspecified) [Synephrine]
area under growth-rate inhibition curve (MDA-MB-231): 0.993 | area under growth-rate inhibition curve (SKBR3-P): 1.03 | area under growth-rate inhibition curve (BT474-LTR): 1.06 | area under growth-rate inhibition curve (SKBR3-LTR): 1.07 | area under growth-rate inhibition curve (MDA-MB-468): 1.05 | area under growth-rate inhibition curve (BT474-P): 1.05

Cl.NCc1cnc(S)n1C1CCc2c(F)cc(F)cc2C1 (stereo not drawn) [Nepicastat (SYN-117) HCl]
area under growth-rate inhibition curve (MDA-MB-231): 1.01 | area under growth-rate inhibition curve (SKBR3-P): 1.02 | area under growth-rate inhibition curve (BT474-LTR): 1.08 | area under growth-rate inhibition curve (SKBR3-LTR): 1.07 | area under growth-rate inhibition curve (MDA-MB-468): 1 | area under growth-rate inhibition curve (BT474-P): 1.03

CC(C(O)c1ccc(O)cc1)N1CCC(Cc2ccccc2)CC1.CC(C(O)c1ccc(O)cc1)N1CCC(Cc2ccccc2)CC1.O=C(O)C(O)C(O)C(=O)O (stereo unspecified) [Ifenprodil Tartrate]
area under growth-rate inhibition curve (MDA-MB-231): 1.04 | area under growth-rate inhibition curve (SKBR3-P): 0.985 | area under growth-rate inhibition curve (BT474-LTR): 1.01 | area under growth-rate inhibition curve (SKBR3-LTR): 0.997 | area under growth-rate inhibition curve (MDA-MB-468): 0.985 | area under growth-rate inhibition curve (BT474-P): 1.02

NCCCCC1NC(=O)C(Cc2c[nH]c3ccccc23)NC(=O)C(c2ccccc2)NC(=O)C2CC(OC(=O)NCCN)CN2C(=O)C(Cc2ccccc2)NC(=O)C(Cc2ccc(OCc3ccccc3)cc2)NC1=O (stereo unspecified) [Pasireotide]
area under growth-rate inhibition curve (MDA-MB-231): 1.03 | area under growth-rate inhibition curve (SKBR3-P): 1.03 | area under growth-rate inhibition curve (BT474-LTR): 1.04 | area under growth-rate inhibition curve (SKBR3-LTR): 1.05 | area under growth-rate inhibition curve (MDA-MB-468): 1.03 | area under growth-rate inhibition curve (BT474-P): 1.02

CCC(=O)O[C@@H](OP(=O)(CCCCc1ccccc1)CC(=O)N1C[C@H](C2CCCCC2)C[C@H]1C(=O)[O-])C(C)C.[Na+] (stereo partly specified) [Fosinopril Sodium]
area under growth-rate inhibition curve (MDA-MB-231): 1.03 | area under growth-rate inhibition curve (SKBR3-P): 1.01 | area under growth-rate inhibition curve (BT474-LTR): 1.13 | area under growth-rate inhibition curve (SKBR3-LTR): 1.04 | area under growth-rate inhibition curve (MDA-MB-468): 1.02 | area under growth-rate inhibition curve (BT474-P): 1.06

Br.CN1C2CC(OC(=O)C(CO)c3ccccc3)CC1C1OC12 (stereo unspecified) [Scopolamine HBr]
area under growth-rate inhibition curve (MDA-MB-231): 1.03 | area under growth-rate inhibition curve (SKBR3-P): 1.01 | area under growth-rate inhibition curve (BT474-LTR): 1.08 | area under growth-rate inhibition curve (SKBR3-LTR): 1.09 | area under growth-rate inhibition curve (MDA-MB-468): 1.04 | area under growth-rate inhibition curve (BT474-P): 1.05
